Test results from US11891365B2, “3-alkyl-4-amido-bicyclic [4,5,0] hydroxamic acids as HDAC inhibitors” (Valo Health, Inc., priority 2015, dated 2024).
pIC50: −log10 of the molar value.

Molecular target: T1, Full length human recombinant HDAC6 protein (Homo sapiens, UniProt Q9UBN7)
T1 sequence (Q9UBN7 1-1215): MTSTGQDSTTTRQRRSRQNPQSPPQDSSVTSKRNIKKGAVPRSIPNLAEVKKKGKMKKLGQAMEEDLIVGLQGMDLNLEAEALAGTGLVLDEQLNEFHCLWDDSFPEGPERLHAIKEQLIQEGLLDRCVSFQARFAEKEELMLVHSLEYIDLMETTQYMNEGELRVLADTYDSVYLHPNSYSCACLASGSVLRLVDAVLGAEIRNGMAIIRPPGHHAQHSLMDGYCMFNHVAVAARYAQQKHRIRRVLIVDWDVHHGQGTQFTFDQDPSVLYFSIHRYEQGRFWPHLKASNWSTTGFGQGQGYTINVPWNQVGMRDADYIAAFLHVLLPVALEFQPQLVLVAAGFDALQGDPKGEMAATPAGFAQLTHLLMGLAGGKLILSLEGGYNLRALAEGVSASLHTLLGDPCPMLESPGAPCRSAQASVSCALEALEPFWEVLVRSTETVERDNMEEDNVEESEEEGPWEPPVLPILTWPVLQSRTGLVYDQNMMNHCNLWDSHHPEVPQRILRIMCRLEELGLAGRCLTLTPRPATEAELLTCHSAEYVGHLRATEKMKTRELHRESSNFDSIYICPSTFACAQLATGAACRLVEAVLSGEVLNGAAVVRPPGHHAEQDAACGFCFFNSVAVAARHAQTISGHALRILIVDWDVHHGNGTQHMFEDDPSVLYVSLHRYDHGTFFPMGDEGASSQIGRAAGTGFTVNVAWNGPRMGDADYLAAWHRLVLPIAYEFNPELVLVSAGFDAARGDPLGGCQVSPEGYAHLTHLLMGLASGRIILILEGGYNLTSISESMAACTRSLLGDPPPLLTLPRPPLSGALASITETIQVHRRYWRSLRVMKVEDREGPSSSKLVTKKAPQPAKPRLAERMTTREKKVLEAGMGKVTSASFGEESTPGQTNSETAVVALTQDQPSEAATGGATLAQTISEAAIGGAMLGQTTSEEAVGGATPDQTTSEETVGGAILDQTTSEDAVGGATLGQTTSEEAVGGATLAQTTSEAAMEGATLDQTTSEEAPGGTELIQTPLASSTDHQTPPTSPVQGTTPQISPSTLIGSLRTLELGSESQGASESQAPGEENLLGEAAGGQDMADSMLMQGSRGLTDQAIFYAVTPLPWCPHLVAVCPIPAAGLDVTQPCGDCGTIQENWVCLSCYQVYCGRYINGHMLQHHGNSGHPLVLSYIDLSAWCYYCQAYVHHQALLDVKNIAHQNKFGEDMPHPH
Experiment: In vitro histone deacetylase assay: enzymatic HDAC6 electrophoretic mobility shift assay
Assay type: biochemical
Conditions: 1 nM enzyme, 2 μM peptide substrate RHKK(Ac)-NH2, 25° C., 12 concentrations; read-out: Inhibitory Concentration (IC50) Values against HDAC6, Activity Range

| Structure (SMILES) | pIC50 |
| --- | --- |
| CCCNc1c(C(=O)N2CCOc3cc(C(=O)NO)ccc3C2)sc2ccccc12 [N-hydroxy-4-(3-(propylamino)benzo[b]thiophene-2-carbonyl)-2,3,4,5-tetrahydrobenzo[f][1,4]oxazepine-8-carboxamide] | ≥ 7.00 |
| O=C(NO)c1ccc2c(c1)OCCN(C(=O)C1CCC3(CCNCC3)CC1)C2 [N-hydroxy-4-(3-azaspiro[5.5]undecane-9-carbonyl)-2,3,4,5-tetrahydrobenzo[f][1,4]oxazepine-8-carboxamide] | ≥ 7.00 |
| O=C(NO)c1ccc2c(c1)OCCN(C(=O)CCO)C2 [N-hydroxy-4-(3-hydroxypropanoyl)-2,3,4,5-tetrahydrobenzo[f][1,4]oxazepine-8-carboxamide] | < 6.30 |
| COCC(C)(C)C(=O)N1CCOc2cc(C(=O)NO)ccc2C1 [N-hydroxy-4-(3-methoxy-2,2-dimethylpropanoyl)-2,3,4,5-tetrahydrobenzo[f][1,4]oxazepine-8-carboxamide] | ≥ 7.00 |
| COc1cccc(C(=O)N2CCOc3cc(C(=O)NO)ccc3C2)c1 [N-hydroxy-4-(3-methoxybenzoyl)-2,3,4,5-tetrahydrobenzo[f][1,4]oxazepine-8-carboxamide] | 6.30 to 7.00 |
| CC1(C(=O)N2CCOc3cc(C(=O)NO)ccc3C2)COC1 [N-hydroxy-4-(3-methyloxetane-3-carbonyl)-2,3,4,5-tetrahydrobenzo[f][1,4]oxazepine-8-carboxamide] | ≥ 7.00 |
| CC(CC(=O)N1CCOc2cc(C(=O)NO)ccc2C1)c1ccccc1 (stereo not shown) [N-hydroxy-4-(3-phenylbutanoyl)-2,3,4,5-tetrahydrobenzo[f][1,4]oxazepine-8-carboxamide] | 6.30 to 7.00 |
| O=C(NO)c1ccc2c(c1)OCCN(C(=O)CCc1ccccc1)C2 [N-hydroxy-4-(3-phenylpropanoyl)-2,3,4,5-tetrahydrobenzo[f][1,4]oxazepine-8-carboxamide] | ≥ 7.00 |
| O=C(NO)c1ccc2c(c1)OCCN(C(=O)C1OC3(CCNCC3)c3ccccc31)C2 (stereo not shown) [N-hydroxy-4-(3H-spiro[isobenzofuran-1,4′-piperidine]-3-carbonyl)-2,3,4,5-tetrahydrobenzo[f][1,4]oxazepine-8-carboxamide] | 6.30 to 7.00 |
| O=C(NO)c1ccc2c(c1)OCCN(C(=O)CCC(F)(F)F)C2 [N-hydroxy-4-(4,4,4-trifluorobutanoyl)-2,3,4,5-tetrahydrobenzo[f][1,4]oxazepine-8-carboxamide] | 6.30 to 7.00 |
| O=C(NO)c1ccc2c(c1)OCCN(C(=O)c1ccc(C(F)(F)F)cc1)C2 [N-hydroxy-4-(4-(trifluoromethyl)benzoyl)-2,3,4,5-tetrahydrobenzo[f][1,4]oxazepine-8-carboxamide] | 6.30 to 7.00 |
| COCCC(C(=O)N1CCOc2cc(C(=O)NO)ccc2C1)c1ccccn1 (stereo not shown) [N-hydroxy-4-(4-methoxy-2-(pyridin-2-yl)butanoyl)-2,3,4,5-tetrahydrobenzo[f][1,4]oxazepine-8-carboxamide] | 6.30 to 7.00 |
| COc1ccc(C(=O)N2CCOc3ccc(C(=O)NO)cc3C2)cc1 [N-hydroxy-4-(4-methoxybenzoyl)-2,3,4,5-tetrahydrobenzo[f][1,4]oxazepine-7-carboxamide] | < 6.30 |
| COc1ccc(C(=O)N2CCOc3cc(C(=O)NO)ccc3C2)cc1 [N-hydroxy-4-(4-methoxybenzoyl)-2,3,4,5-tetrahydrobenzo[f][1,4]oxazepine-8-carboxamide] | ≥ 7.00 |
| COc1ccc(C(=O)N2CC(=O)Nc3ccc(C(=O)NO)cc3C2)cc1 [N-hydroxy-4-(4-methoxybenzoyl)-2-oxo-2,3,4,5-tetrahydro-1H-benzo[e][1,4]diazepine-7-carboxamide] | < 6.30 |
| COC1CCC(C(=O)N2CCOc3cc(C(=O)NO)ccc3C2)CC1 (stereo not shown) [N-hydroxy-4-(4-methoxycyclohexane-1-carbonyl)-2,3,4,5-tetrahydrobenzo[f][1,4]oxazepine-8-carboxamide] | ≥ 7.00 |
| CC1(C(=O)N2CCOc3cc(C(=O)NO)ccc3C2)CCOCC1 [N-hydroxy-4-(4-methyltetrahydro-2H-pyran-4-carbonyl)-2,3,4,5-tetrahydrobenzo[f][1,4]oxazepine-8-carboxamide] | ≥ 7.00 |

| Structure (SMILES) | pIC50 |
| --- | --- |
| O=C(NO)c1ccc2c(c1)OCCN(C(=O)c1ccc(N3CCOCC3)cc1)C2 [N-hydroxy-4-(4-morpholinobenzoyl)-2,3,4,5-tetrahydrobenzo[f][1,4]oxazepine-8-carboxamide] | 6.30 to 7.00 |
| O=C(NO)c1ccc2c(c1)OCCN(C(=O)c1ccc(Oc3ccccc3)cc1)C2 [N-hydroxy-4-(4-phenoxybenzoyl)-2,3,4,5-tetrahydrobenzo[f][1,4]oxazepine-8-carboxamide] | ≥ 7.00 |
| O=C(NO)c1ccc2c(c1)OCCN(C(=O)C1(c3ccccc3)CCOCC1)C2 [N-hydroxy-4-(4-phenyltetrahydro-2H-pyran-4-carbonyl)-2,3,4,5-tetrahydrobenzo[f][1,4]oxazepine-8-carboxamide] | 6.30 to 7.00 |
| O=C(NO)c1ccc2c(c1)OCCN(C(=O)C1CC13CCNC3)C2 (stereo not shown) [N-hydroxy-4-(5-azaspiro[2.4]heptane-1-carbonyl)-2,3,4,5-tetrahydrobenzo[f][1,4]oxazepine-8-carboxamide] | < 6.30 |
| O=C(NO)c1ccc2c(c1)OCCN(C(=O)C1CC13CCCNC3)C2 (stereo not shown) [N-hydroxy-4-(5-azaspiro[2.5]octane-1-carbonyl)-2,3,4,5-tetrahydrobenzo[f][1,4]oxazepine-8-carboxamide] | < 6.30 |
| O=C(NO)c1ccc2c(c1)OCCN(C(=O)C1CC13CCNCC3)C2 (stereo not shown) [N-hydroxy-4-(6-azaspiro[2.5]octane-1-carbonyl)-2,3,4,5-tetrahydrobenzo[f][1,4]oxazepine-8-carboxamide] | 6.30 to 7.00 |
| O=C(NO)c1ccc2c(c1)OCCN(C(=O)C1CCC3(CCNCC3)C1)C2 (stereo not shown) [N-hydroxy-4-(8-azaspiro[4.5]decane-2-carbonyl)-2,3,4,5-tetrahydrobenzo[f][1,4]oxazepine-8-carboxamide] | ≥ 7.00 |
| CN(CC(=O)N1CCOc2cc(C(=O)NO)ccc2C1)S(C)(=O)=O [N-hydroxy-4-(N-methyl-N-(methylsulfonyl)glycyl)-2,3,4,5-tetrahydrobenzo[f][1,4]oxazepine-8-carboxamide] | 6.30 to 7.00 |
| O=C(NO)c1ccc2c(c1)OCCN(C(=O)C1COC1)C2 [N-hydroxy-4-(oxetane-3-carbonyl)-2,3,4,5-tetrahydrobenzo[f][1,4]oxazepine-8-carboxamide] | ≥ 7.00 |
| O=C(NO)c1ccc2c(c1)OCCN(C(=O)C1CCOCC1)C2 [N-hydroxy-4-(tetrahydro-2H-pyran-4-carbonyl)-2,3,4,5-tetrahydrobenzo[f][1,4]oxazepine-8-carboxamide] | ≥ 7.00 |
| O=C(NO)c1ccc2c(c1)OCC(C1CCOCC1)N(C(=O)C1CCOCC1)C2 (stereo not shown) [N-hydroxy-4-(tetrahydro-2H-pyran-4-carbonyl)-3-(tetrahydro-2H-pyran-4-yl)-2,3,4,5-tetrahydrobenzo[f][1,4]oxazepine-8-carboxamide] | < 6.30 |
| O=C(NO)c1ccc2c(c1)OCC1(CC1)N(C(=O)C1CCOCC1)C2 [N-hydroxy-4-(tetrahydro-2H-pyran-4-carbonyl)-4,5-dihydro-2H-spiro[benzo[f][1,4]oxazepine-3,1′-cyclopropane]-8-carboxamide] | ≥ 7.00 |
| O=C(NO)c1ccc2c(c1)OCCN(C(=O)C1CCOC1)C2 (stereo not shown) [N-hydroxy-4-(tetrahydrofuran-3-carbonyl)-2,3,4,5-tetrahydrobenzo[f][1,4]oxazepine-8-carboxamide] | ≥ 7.00 |
| CC(C)C(=O)N1CCOc2cc(C(=O)NO)ccc2C1 [N-hydroxy-4-isobutyryl-2,3,4,5-tetrahydrobenzo[f][1,4]oxazepine-8-carboxamide] | ≥ 7.00 |
| CC(C)(C)C(=O)N1CCOc2cc(C(=O)NO)ccc2C1 [N-hydroxy-4-pivaloyl-2,3,4,5-tetrahydrobenzo[f][1,4]oxazepine-8-carboxamide] | ≥ 7.00 |
| O=C(NO)c1cnc2c(n1)OCCN(C(=O)C1CCOCC1)C2 [N-hydroxy-8-(tetrahydro-2H-pyran-4-carbonyl)-6,7,8,9-tetrahydropyrazino[2,3-f][1,4]oxazepine-3-carboxamide] | 6.30 to 7.00 |
| CC(C)(C)OC(=O)N1CCC2(CC1)CC2C(=O)N1CCOc2cc(C(=O)NO)ccc2C1 (stereo not shown) [tert-butyl 1-(8-(hydroxycarbamoyl)-2,3,4,5-tetrahydrobenzo[f][1,4]oxazepine-4-carbonyl)-6-azaspiro[2.5]octane-6-carboxylate] | 6.30 to 7.00 |
